Consider two compounds from patent US20240269350A1, “I[…] FOR TREATING CENTRAL NERVOUS SYSTEM DISORDERS” (priority 2021, published 2024).

For data set [1] the following is noted: approved oral, patch or i.v. administration; cited from earlier work.
The nature of data set [2]: Oral rivastigmine pharmacokinetics and estimated delivery to CSF (Exelon label). The settings on record: for daily dose delivered to CSF: plasma volume 2750 mL, CSF volume 150 mL. Type of data set: in vivo. How it is done: Drug coating and formulation development. The absolute bioavailability of oral rivastigmine is approximately 40%, and the AUC1-12h cerebral spinal fluid (CSF)/plasma ratio is about 40% (Novartis Exelon® Capsules and Oral Solution Prescribing Information). An estimated 0.87% of the rivastigmine oral dose is absorbed and distributed into the CSF. Thus, the daily CSF uptake of this drug is estimated to be between 26-105 μg. As a starting point for the formulation development, we will first target to formulate a matrix loaded with rivastigmine which will be released over 30 days in a near linear manner. Bilateral administration of the rivastigmine matrix would result in approximately 21-107 μg rivastigmine delivered to CSF/day, assuming a CSF bioavailability between 10-50%.
For oral administration, delivery, an absolute bioavailability of Rivastigmine is about 40% and a mean AUC (area under the curve) 1-12 hr CSF/Plasma is about 40% (Exelon Label). The daily doses delivered to CSF are 26 μg/day, 52 μg/day, 79 μg/day, and 105 μg/day for the oral doses, equating to 1.5 mg BID, 3 mg BID, 4.5 mg BID, and 6 mg BID, respectively. For this estimation, a plasma volume of 2750 mL and a CSF volume of 150 mL are used.

For data set [3] the following is noted: tartrate salt form; cited from earlier work.
The conditions of data set [4]: oral administration, cited from earlier work; for AUC1-12h cerebral spinal fluid (CSF)/plasma ratio: mean.

Like-named read-outs stand apart in the source and are kept apart here.

Regarding `CC12CC3CC(C)(C1)CC(N)(C3)C2` [Memantine], the Side effects result in data set [1] is “Headache, constipation,”.

Turning to `CCN(C)C(=O)Oc1cccc([C@H](C)N(C)C)c1` [Rivastigmine], the “daily dose delivered to CSF” value is 26 µg/day in data set [2] (oral 1.5 mg BID), 52 µg/day in data set [2] (oral 3 mg BID), 79 µg/day in data set [2] (oral 4.5 mg BID) and 105 µg/day in data set [2] (oral 6 mg BID). Besides, the “fraction of oral dose absorbed and distributed into the CSF” value in data set [2] (oral dose, estimated) was 0.87%. Further, the “daily CSF uptake” value in data set [2] (oral dosing, estimated) is 26 to 105 µg. Further, the water solubility entry in data set [3] is “highly water-soluble”. In addition, the “AUC1-12h cerebral spinal fluid (CSF)/plasma ratio” value in data set [4] was “about 40%”; in data set [4] (listed as rivastigmine) it was “approximately 40%”. Also, the figures for the absolute bioavailability entry in data set [4] and in data set [4] (listed as rivastigmine) were “about 40%” and “approximately 40%”, respectively.
